Experimental data taken from ChEMBL document CHEMBL1154976 (Bioorg Med Chem Lett, 2010).

Experiments:
Mu-type opioid receptor = Mu-type opioid receptor (Homo sapiens, UniProt P35372); assay: Displacement of [3H]DAMGO from human mu opioid receptor expressed in CHO cell membranes after 60 mins by scintillation counting
[1] = target: Kappa-type opioid receptor (Homo sapiens, UniProt P41145); assay: Displacement of [3H]U69,593 from human kappa opioid receptor expressed in CHO cell membranes after 60 mins by scintillation counting
Sequence of Kappa-type opioid receptor (P41145 whole entry): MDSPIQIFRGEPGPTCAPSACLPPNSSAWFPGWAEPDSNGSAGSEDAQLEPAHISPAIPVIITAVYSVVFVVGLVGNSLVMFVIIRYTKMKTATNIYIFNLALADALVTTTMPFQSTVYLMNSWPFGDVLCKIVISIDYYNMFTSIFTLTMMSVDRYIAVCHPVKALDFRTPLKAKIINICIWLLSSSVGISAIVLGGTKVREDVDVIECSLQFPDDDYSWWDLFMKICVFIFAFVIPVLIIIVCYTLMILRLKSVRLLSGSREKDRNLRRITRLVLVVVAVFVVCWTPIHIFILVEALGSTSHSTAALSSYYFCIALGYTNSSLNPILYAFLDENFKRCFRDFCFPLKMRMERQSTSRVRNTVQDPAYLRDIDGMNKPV

Homo sapiens [2] = species on record: Homo sapiens; assay: Selectivity ratio of Ki for human mu opioid receptor to Ki for human kappa opioid receptor
[3] = target: Delta-type opioid receptor (Homo sapiens, UniProt P41143); assay: Displacement of [3H]naltrindole from human delta opioid receptor expressed in CHO cell membranes after 3 hrs by scintillation counting
Sequence of Delta-type opioid receptor (P41143 whole entry): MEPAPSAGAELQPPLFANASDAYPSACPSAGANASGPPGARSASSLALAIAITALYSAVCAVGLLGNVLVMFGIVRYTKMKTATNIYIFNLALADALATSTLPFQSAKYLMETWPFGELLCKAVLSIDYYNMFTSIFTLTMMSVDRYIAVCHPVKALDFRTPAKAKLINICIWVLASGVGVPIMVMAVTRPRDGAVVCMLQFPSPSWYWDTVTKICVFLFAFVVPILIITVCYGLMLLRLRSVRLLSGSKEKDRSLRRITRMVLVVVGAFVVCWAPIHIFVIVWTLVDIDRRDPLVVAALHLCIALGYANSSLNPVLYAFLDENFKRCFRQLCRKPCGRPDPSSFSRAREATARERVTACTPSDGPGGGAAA

Homo sapiens [4] = species on record: Homo sapiens; assay: Selectivity ratio of Ki for human delta opioid receptor to Ki for human kappa opioid receptor
Homo sapiens [5] = species on record: Homo sapiens; assay: Selectivity ratio of Ki for human delta opioid receptor to Ki for human mu opioid receptor
Homo sapiens [6] = species on record: Homo sapiens; assay: Selectivity ratio of Ki for human kappa opioid receptor to Ki for human mu opioid receptor

Sequence of Mu-type opioid receptor (P35372 whole entry): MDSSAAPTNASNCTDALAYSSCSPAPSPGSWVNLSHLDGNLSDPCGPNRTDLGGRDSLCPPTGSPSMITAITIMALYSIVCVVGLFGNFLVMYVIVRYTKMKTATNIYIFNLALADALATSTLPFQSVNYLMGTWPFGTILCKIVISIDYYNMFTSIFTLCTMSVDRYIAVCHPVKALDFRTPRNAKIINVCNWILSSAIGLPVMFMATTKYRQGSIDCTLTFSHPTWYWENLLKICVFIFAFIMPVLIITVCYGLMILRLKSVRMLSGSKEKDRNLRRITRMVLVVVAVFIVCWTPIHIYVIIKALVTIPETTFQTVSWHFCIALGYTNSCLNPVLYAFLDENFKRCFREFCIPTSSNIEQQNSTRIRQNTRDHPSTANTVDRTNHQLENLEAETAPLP

| Structure (SMILES) | Ki (Mu-type opioid receptor) [nM] | Ki [1] [nM] | Ratio Ki (Homo sapiens [2]) | Ki [3] [nM] | Ratio Ki (Homo sapiens [4]) | Ratio Ki (Homo sapiens [5]) | Ratio Ki (Homo sapiens [6]) |
| --- | --- | --- | --- | --- | --- | --- | --- |
| OC(COc1ccc2c(c1)[C@@]13CCCC[C@H]1[C@@H](C2)N(CC1CCC1)CC3)CC(O)COc1ccc2c(c1)[C@@]13CCCC[C@H]1[C@@H](C2)N(CC1CCC1)CC3 (stereo partly specified) | 1.2 | 0.17 | 7 | 33 | 194 | – | – |
| OC(COc1ccc2c(c1)[C@@]13CCCC[C@H]1[C@@H](C2)N(CC1CCC1)CC3)COc1ccc2c(c1)[C@@]13CCCC[C@H]1[C@@H](C2)N(CC1CCC1)CC3 | 0.95 | 0.99 | – | 37 | 39 | 39 | – |
| OC(CCCCC(O)COc1ccc2c(c1)[C@@]13CCCC[C@H]1[C@@H](C2)N(CC1CCC1)CC3)COc1ccc2c(c1)[C@@]13CCCC[C@H]1[C@@H](C2)N(CC1CCC1)CC3 (stereo partly specified) | 3.2 | 3.3 | – | 74 | 23 | 23 | – |
| c1cc2c(cc1OCC1CO1)[C@@]13CCCC[C@H]1[C@@H](C2)N(CC1CCC1)CC3 (stereo partly specified) | 7.3 | 36 | – | 200 | – | 27 | 5 |
| OC(CCC(O)COc1ccc2c(c1)[C@@]13CCCC[C@H]1[C@@H](C2)N(CC1CCC1)CC3)COc1ccc2c(c1)[C@@]13CCCC[C@H]1[C@@H](C2)N(CC1CCC1)CC3 (stereo partly specified) | 17 | 12 | 1.4 | 420 | 35 | – | – |
| CCCCCCCCCCOc1ccc2c(c1)[C@@]13CCCC[C@H]1[C@@H](C2)N(CC1CCC1)CC3 | 70 | – | 1.3 | – | – | – | – |
| c1cc2c(cc1OCCCCOc1ccc3c(c1)[C@@]14CCCC[C@H]1[C@@H](C3)N(CC1CCC1)CC4)[C@@]13CCCC[C@H]1[C@@H](C2)N(CC1CCC1)CC3 | – | – | 1.6 | – | 40 | – | – |
| OC(CCCC(O)COc1ccc2c(c1)[C@@]13CCCC[C@H]1[C@@H](C2)N(CC1CCC1)CC3)COc1ccc2c(c1)[C@@]13CCCC[C@H]1[C@@H](C2)N(CC1CCC1)CC3 (stereo partly specified) | 12 | 9.8 | 1.2 | 160 | 16 | – | – |
| OC(CCCCCCC(O)COc1ccc2c(c1)[C@@]13CCCC[C@H]1[C@@H](C2)N(CC1CCC1)CC3)COc1ccc2c(c1)[C@@]13CCCC[C@H]1[C@@H](C2)N(CC1CCC1)CC3 (stereo partly specified) | 2.4 | 1.4 | 1.7 | 27 | 19 | – | – |
| OC(CCCCCC(O)COc1ccc2c(c1)[C@@]13CCCC[C@H]1[C@@H](C2)N(CC1CCC1)CC3)COc1ccc2c(c1)[C@@]13CCCC[C@H]1[C@@H](C2)N(CC1CCC1)CC3 (stereo partly specified) | 4.8 | 3.9 | 1.2 | 99 | 25 | – | – |
| OC(COc1ccc(Cc2ccc(OCC(O)COc3ccc4c(c3)[C@@]35CCCC[C@H]3[C@@H](C4)N(CC3CCC3)CC5)cc2)cc1)COc1ccc2c(c1)[C@@]13CCCC[C@H]1[C@@H](C2)N(CC1CCC1)CC3 (stereo partly specified) | 0.24 | 0.34 | – | 29 | – | 121 | 1.4 |
| c1cc2c(cc1OCCCCCCCCCCOc1ccc3c(c1)[C@@]14CCCC[C@H]1[C@@H](C3)N(CC1CCC1)CC4)[C@@]13CCCC[C@H]1[C@@H](C2)N(CC1CCC1)CC3 | – | – | – | – | – | 38 | 1.8 |
| c1cc2c(cc1OCCCOc1ccc3c(c1)[C@@]14CCCC[C@H]1[C@@H](C3)N(CC1CCC1)CC4)[C@@]13CCCC[C@H]1[C@@H](C2)N(CC1CCC1)CC3 | 7.1 | 6.2 | 1.1 | 180 | 29 | – | – |
| CCCCCCCCC(O)COc1ccc2c(c1)[C@@]13CCCC[C@H]1[C@@H](C2)N(CC1CCC1)CC3 (stereo partly specified) | 7.4 | 8.3 | – | 52 | – | 7 | 1.1 |
| OC(COc1ccccc1)COc1ccc2c(c1)[C@@]13CCCC[C@H]1[C@@H](C2)N(CC1CCC1)CC3 (stereo partly specified) | 6.5 | 22 | – | 86 | – | 13 | 13 |
| CCCCCCCCCC(=O)Oc1ccc2c(c1)[C@@]13CCCC[C@H]1[C@@H](C2)N(CC1CCC1)CC3 | 0.21 | 0.2 | – | 20 | 100 | 100 | – |
